Laboratory results published in patent publication US20240158446A1, “CYCLIC COMPOUND HAVING SELECTIVE INHIBITORY ACTION ON KRAS OVER HRAS AND NRAS” (CHUGAI SEIYAKU KABUSHIKI KAISHA, priority 2021, published 2024).
Where two headings read alike, the source gives them in different places. *1 amine or outer side, *2 acyl side, *3 side chain or, on linkers, in order; H or OH if unused. Where a SMILES comes first, the peptide text is derived from it. Bridges are numbered along the chain shown (N, C = ends). [ ]: non-standard residue; d: D form. The star is where a group is joined. hPhe(3-Cl-4-CF3) = N[C@@H](CCc1ccc(C(F)(F)F)c(Cl)c1)C(=O)O; X31 = COCCCN([C@@H](Cc1ccc(C(F)(F)F)cc1)C(=O)[*:2])[*:1]; NPrPhe(4-CF3) = CCCN[C@@H](Cc1ccc(C(F)(F)F)cc1)C(=O)O; NMeGly(cPent) = CN[C@H](C(=O)O)C1CCCC1; Hyp = O=C(O)[C@@H]1C[C@@H](O)CN1; NMeD = CN[C@@H](CC(=O)O)C(=O)O; NMeL = CN[C@@H](CC(C)C)C(=O)O; Morpholide = C1CN(*)CCO1; NMeA = CN[C@@H](C)C(=O)O; Ac5c = NC1(C(=O)O)CCCC1; Aze = O=C(O)[C@@H]1CCN1; Ac4c = NC1(C(=O)O)CCC1; Sar = CNCC(=O)O

Columns and labels:
[1] = target: GDP-bound KRAS wild-type protein (Homo sapiens, UniProt P01116); test: Binding to KRAS by surface plasmon resonance (SPR), Single Cycle Kinetics; details: GDP-bound KRAS wild-type protein, read-out: KRAS KD
[2] = target: GDP-bound NRAS wild-type protein (Homo sapiens, UniProt P01111); test: Binding to NRAS by surface plasmon resonance (SPR), Single Cycle Kinetics; details: for NRAS/KRAS (ratio of KD value with respect to NRAS to KD value with respect to KRAS) / NRAS/KRAS (ratio of KD value for NRAS to KD value for KRAS): SPR, GDP-bound NRAS wild-type protein vs GDP-bound KRAS wild-type protein
[3] = target: GDP-bound HRAS wild-type protein (Homo sapiens, UniProt P01112); test: Binding to HRAS by surface plasmon resonance (SPR), Single Cycle Kinetics; details: for HRAS/KRAS (ratio of KD value with respect to HRAS to KD value with respect to KRAS) / HRAS/KRAS (ratio of KD value for HRAS to KD value for KRAS): SPR, GDP-bound HRAS wild-type protein vs GDP-bound KRAS wild-type protein
[4] = SPR Single Cycle Kinetics, 1:1 binding model

GDP-bound NRAS wild-type protein, sequence (P01111 whole entry): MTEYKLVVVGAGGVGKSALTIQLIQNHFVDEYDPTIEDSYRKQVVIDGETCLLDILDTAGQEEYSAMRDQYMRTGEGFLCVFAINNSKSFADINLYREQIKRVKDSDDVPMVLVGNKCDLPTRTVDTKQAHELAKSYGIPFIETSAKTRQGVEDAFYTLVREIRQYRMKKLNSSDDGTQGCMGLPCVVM
GDP-bound HRAS wild-type protein, sequence (P01112 whole entry): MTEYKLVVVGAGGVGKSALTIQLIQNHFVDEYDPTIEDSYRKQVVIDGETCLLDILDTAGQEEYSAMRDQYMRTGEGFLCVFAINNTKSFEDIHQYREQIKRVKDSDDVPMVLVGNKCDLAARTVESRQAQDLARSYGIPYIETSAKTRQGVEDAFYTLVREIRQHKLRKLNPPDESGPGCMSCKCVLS
GDP-bound KRAS wild-type protein, sequence (P01116 whole entry): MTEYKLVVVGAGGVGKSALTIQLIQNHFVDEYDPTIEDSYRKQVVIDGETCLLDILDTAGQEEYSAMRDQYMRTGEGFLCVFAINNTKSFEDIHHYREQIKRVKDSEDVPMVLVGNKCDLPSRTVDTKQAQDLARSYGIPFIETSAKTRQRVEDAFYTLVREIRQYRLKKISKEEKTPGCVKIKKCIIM

| SMILES | Kd [1, 4] [pM] | Kd ([1]; SPR, Single Cycle Kinetics) [pM] | NRAS/KRAS (ratio of KD value with respect to NRAS to KD value with respect to KRAS) [2] | HRAS/KRAS (ratio of KD value with respect to HRAS to KD value with respect to KRAS) [3] | NRAS/KRAS (ratio of KD value with respect to GDP-bound NRAS wild-type protein to KD value with respect to KRAS) ([2]; SPR KD ratio NRAS/KRAS, class symbols) | HRAS/KRAS (ratio of KD value with respect to GDP-bound HRAS wild-type protein to KD value with respect to KRAS) ([3]; SPR KD ratio HRAS/KRAS, class symbols) | NRAS/KRAS (ratio of KD value for NRAS to KD value for KRAS) [2] | HRAS/KRAS (ratio of KD value for HRAS to KD value for KRAS) [3] |
| --- | --- | --- | --- | --- | --- | --- | --- | --- |
| CCO[C@@H]1C[C@H]2C(=O)NC3(CCC3)C(=O)N(C)[C@@H](C3CCCC3)C(=O)N(C)[C@H](C(=O)N(C)C)CC(=O)N(C)[C@@H](COC)C(=O)N[C@@H]([C@@H](C)CC)C(=O)N(C)CC(=O)N(C)[C@H]3CCCCCN(C3=O)[C@@H](Cc3ccc(C(F)(F)F)cc3)C(=O)N(C)CC(=O)N[C@@H](CCc3cc(F)c(C(F)(F)F)c(F)c3)C(=O)N2C1 [PP0674] | 160 | – | B (a compound having 3 or more and less than 10 is denoted as B) | B (a compound having 3 or more and less than 10 is denoted as B) | – | – | – | – |
| CCC[C@H]1C(=O)N[C@@H]([C@@H](C)CC)C(=O)N(C)CC(=O)N(C)[C@H]2C/C=C\CCN(C2=O)[C@@H](Cc2ccc(C(F)(F)F)cc2)C(=O)N(C)CC(=O)N[C@@H](CCc2ccc3ccn(C)c3c2)C(=O)N2C[C@H](OCC)C[C@H]2C(=O)NC2(CC(C)(C)C2)C(=O)N(C)[C@@H](C(CC)CC)C(=O)N(C)[C@H](C(=O)N(C)C)CC(=O)N1C [PP2912] | 8700 | – | – | – | AA (a compound having 20 or more is denoted as AA) | A (a compound having 10 or more and less than 20 is denoted as A) | – | – |
| CCO[C@@H]1C[C@H]2C(=O)NC3(CCC3)C(=O)N(C)[C@@H](C3CCCC3)C(=O)N(CCC3CCC3)[C@H](C(=O)N(C)C)CC(=O)N(C)[C@@H](CC)C(=O)N[C@@H]([C@@H](C)CC)C(=O)N(C)CC(=O)N(C)[C@H]3CCCCN(C3=O)[C@@H](Cc3ccc(C(F)(F)F)cc3)C(=O)N(C)CC(=O)N[C@@H](CCc3cc(F)c(C(F)(F)F)c(F)c3)C(=O)N2C1 [PP0645] | 28 | – | B (a compound having 3 or more and less than 10 is denoted as B) | B (a compound having 3 or more and less than 10 is denoted as B) | – | – | – | – |

The next lines start with results.

| Kd [1, 4] [pM] | Kd ([1]; SPR, Single Cycle Kinetics) [pM] | SMILES | NRAS/KRAS (ratio of KD value with respect to NRAS to KD value with respect to KRAS) [2] | HRAS/KRAS (ratio of KD value with respect to HRAS to KD value with respect to KRAS) [3] | NRAS/KRAS (ratio of KD value with respect to GDP-bound NRAS wild-type protein to KD value with respect to KRAS) ([2]; SPR KD ratio NRAS/KRAS, class symbols) | HRAS/KRAS (ratio of KD value with respect to GDP-bound HRAS wild-type protein to KD value with respect to KRAS) ([3]; SPR KD ratio HRAS/KRAS, class symbols) | NRAS/KRAS (ratio of KD value for NRAS to KD value for KRAS) [2] | HRAS/KRAS (ratio of KD value for HRAS to KD value for KRAS) [3] |
| --- | --- | --- | --- | --- | --- | --- | --- | --- |
| 42 | – | CCCN1C(=O)[C@@H]2CCN2C(=O)[C@H](C)N(C)C(=O)[C@H]([C@@H](C)CC)NC(=O)[C@H](CC(C)C)N(C)C(=O)C[C@@H](C(=O)N2CCOCC2)N(C)C(=O)[C@H](C2CCCC2)N(C)C(=O)C2(CCC2)NC(=O)[C@@H]2C[C@@H](OCC)CN2C(=O)[C@H](CCc2ccc(C(F)(F)F)c(Cl)c2)NC(=O)CN(C)C(=O)[C@@H]1Cc1ccc(C(F)(F)F)cc1 [PP0406] ([NMeL]I[NMeA][Aze][NPrPhe(4-CF3)][Sar][hPhe(3-Cl-4-CF3)][Hyp](Et)[Ac4c][NMeGly(cPent)][NMeD]-Morpholide; lactam N-11) | – | – | – | – | C (A compound having a KD ratio of 0.1 or more and less than 3 is denoted as C) | B (a compound having 3 or more and less than 10 is denoted as B) |
| – | 180 | CCO[C@@H]1C[C@H]2C(=O)NC3(CC(C)(C)C3)C(=O)N(C)[C@@H](C(CC)CC)C(=O)N(C)[C@H](C(=O)N(C)C)CC(=O)N(C)[C@@H](CC(C)C)C(=O)N[C@@H]([C@@H](C)CC)C(=O)N(C)CC(=O)N(C)[C@H]3C/C=C\CCN(C3=O)[C@@H](Cc3ccc(C(F)(F)F)cc3)C(=O)N(C)CC(=O)N[C@@H](CCc3cc(F)c(C(F)(F)F)c(F)c3)C(=O)N2C1 [PP2127] | – | – | – | – | AA (a compound having 20 or more is denoted as AA) | A (a compound having 10 or more and less than 20 is denoted as A) |
| 80 | – | CC[C@H](C)[C@@H]1NC(=O)[C@H](CC(C)C)N(C)C(=O)C[C@@H](C(=O)N2CCOCC2)N(C)C(=O)[C@H](C2CCCC2)N(C)C(=O)C2(CCCC2)NC(=O)[C@@H]2CCCN2C(=O)[C@H](CCc2ccc(C(F)(F)F)c(Cl)c2)NC(=O)CN(C)C(=O)[C@H](Cc2ccc(C(F)(F)F)cc2)N(CCCOC)C(=O)CN(C)C(=O)CN(C)C1=O [PP0133] ([NMeL]I[Sar][Sar][X31][Sar][hPhe(3-Cl-4-CF3)]P[Ac5c][NMeGly(cPent)][NMeD]-Morpholide; lactam N-11) | – | – | – | – | B (a compound having 3 or more and less than 10 is denoted as B) | C (A compound having a KD ratio of 0.1 or more and less than 3 is denoted as C) |
